# Measured values reported in patent US20200291018A1, “TAM KINASE INHIBITORS” (SYROS PHARMACEUTICALS, INC., priority 2017, published 2020).
# Structures can show the parent of a compound that is named as a salt.
# What was measured:
# AXL = target: T1, AXL (Homo sapiens, UniProt P30530); experiment: TR-FRET kinase activity assay, AXL; format: biochemical; conditions: ATP at Km, 60 minutes
# T1 sequence (P30530 26-894): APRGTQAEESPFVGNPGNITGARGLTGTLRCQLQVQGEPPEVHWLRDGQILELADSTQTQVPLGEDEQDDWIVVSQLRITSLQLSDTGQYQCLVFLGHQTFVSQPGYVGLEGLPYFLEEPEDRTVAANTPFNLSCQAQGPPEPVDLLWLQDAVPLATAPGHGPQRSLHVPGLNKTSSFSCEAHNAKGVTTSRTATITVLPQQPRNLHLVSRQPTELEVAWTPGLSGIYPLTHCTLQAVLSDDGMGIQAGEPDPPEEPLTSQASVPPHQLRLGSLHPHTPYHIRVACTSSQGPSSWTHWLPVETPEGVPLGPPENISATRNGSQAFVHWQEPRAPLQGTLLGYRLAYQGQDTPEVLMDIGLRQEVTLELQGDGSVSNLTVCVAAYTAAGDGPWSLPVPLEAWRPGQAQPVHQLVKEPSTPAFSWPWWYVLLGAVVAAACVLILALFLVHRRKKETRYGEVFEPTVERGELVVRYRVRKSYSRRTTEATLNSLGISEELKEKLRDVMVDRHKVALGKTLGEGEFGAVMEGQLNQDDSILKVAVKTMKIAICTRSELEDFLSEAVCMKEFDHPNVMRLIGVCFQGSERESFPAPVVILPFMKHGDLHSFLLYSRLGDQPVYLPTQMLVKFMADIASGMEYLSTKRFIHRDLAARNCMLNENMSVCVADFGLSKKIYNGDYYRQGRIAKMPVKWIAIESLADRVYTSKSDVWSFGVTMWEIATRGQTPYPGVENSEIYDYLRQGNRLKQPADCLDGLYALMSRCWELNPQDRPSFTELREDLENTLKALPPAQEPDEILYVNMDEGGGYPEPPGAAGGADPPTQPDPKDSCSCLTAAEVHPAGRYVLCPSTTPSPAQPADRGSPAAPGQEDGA
# Procedure: (§1) IC50 values for compound inhibition of AXL, FLT3, MERTK and TYRO3 activity were determined using a TR-FRET activity assay. A peptide substrate with a fluorescent label is phosphorylated on a tyrosine by each enzyme, where the now phosphorylated product is bound by a Europium-labeled antibody specific to that phosphorylation site. The proximity between the antibody and the substrate gives a signal known as TR-FRET. As the enzyme is inhibited by compound, less phosphorylated peptide product is made, causing a decrease in overall signal.
# (§2) Activity assays were performed in a 384-well, small volume, black microplates in an active enzyme volume of 10 uL and final developed volume of 20 uL. Final assay conditions are 50 mM HEPES pH 7.5, 10 mM MgCl2, 1 mM EGTA, 0.01% Brij 35 and 1 mM DTT, all at RT. Enzyme, substrate-labeled peptide and compound are mixed, and then the reaction is initiated with the addition of ATP at Km concentration for each enzyme. The reaction is allowed to run 60 minutes and then quenched with a 12.5 mM EDTA (ethylenediamine tetraacetic acid) solution. The plate is then developed with the addition of Europium-labeled antibody for a final volume of 20 uL and is then incubated for 30 minutes in darkness. Plates are read in a PHERASTAR® plate reader. Data are analyzed in GraphPad PRISM.
# FLT3 = target: T2, FLT3 (Homo sapiens, UniProt P36888); experiment: TR-FRET kinase activity assay, FLT3; format: biochemical; conditions: ATP at Km, 60 minutes
# T2 sequence (P36888 27-993): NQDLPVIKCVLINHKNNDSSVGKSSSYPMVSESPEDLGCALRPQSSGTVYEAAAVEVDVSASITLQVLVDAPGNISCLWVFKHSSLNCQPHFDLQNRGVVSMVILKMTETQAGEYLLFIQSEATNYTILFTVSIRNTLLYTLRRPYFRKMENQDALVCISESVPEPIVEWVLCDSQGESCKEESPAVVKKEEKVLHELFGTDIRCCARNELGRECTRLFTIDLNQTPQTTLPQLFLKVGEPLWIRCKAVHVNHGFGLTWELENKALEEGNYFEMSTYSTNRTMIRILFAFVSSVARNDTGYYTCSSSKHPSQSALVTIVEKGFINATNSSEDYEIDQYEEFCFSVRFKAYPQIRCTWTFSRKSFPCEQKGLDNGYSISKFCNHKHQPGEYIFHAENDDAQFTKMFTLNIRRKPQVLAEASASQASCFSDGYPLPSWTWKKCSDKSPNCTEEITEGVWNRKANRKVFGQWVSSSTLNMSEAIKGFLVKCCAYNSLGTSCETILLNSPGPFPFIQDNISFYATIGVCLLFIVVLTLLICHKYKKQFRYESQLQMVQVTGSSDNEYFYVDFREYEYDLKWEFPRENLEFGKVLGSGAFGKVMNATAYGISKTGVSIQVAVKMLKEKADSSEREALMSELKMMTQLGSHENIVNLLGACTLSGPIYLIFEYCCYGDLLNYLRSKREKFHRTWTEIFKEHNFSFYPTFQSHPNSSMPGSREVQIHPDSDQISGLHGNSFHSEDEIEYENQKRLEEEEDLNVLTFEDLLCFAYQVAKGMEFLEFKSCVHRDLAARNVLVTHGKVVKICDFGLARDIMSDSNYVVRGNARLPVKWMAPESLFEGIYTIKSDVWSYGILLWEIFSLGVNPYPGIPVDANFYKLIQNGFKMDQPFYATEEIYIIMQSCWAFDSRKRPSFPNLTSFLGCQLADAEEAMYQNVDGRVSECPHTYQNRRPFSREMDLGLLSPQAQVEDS
# Procedure: as §1, §2
IC50 (AXL) [µM],IC50 (FLT3) [µM],SMILES
1 to 10,1 to 10,O[C@H]1CC[C@H](c2cnc(OC3CCNCC3)c3cnc(N[C@H]4CCCOC4)nc32)CC1 [Compound 216]
1 to 10,1 to 10,CC[C@H](C)Nc1ncc2c(NC3CCOCC3)ncc([C@H]3CC[C@H](O)CC3)c2n1 [Compound 217]
1 to 10,1 to 10,C[C@@H](Nc1ncc2c(OC3CCNCC3)ncc([C@H]3CC[C@H](O)CC3)c2n1)c1ccccc1 [Compound 218]
≤ 0.1,0.1 to 1,CC[C@H](C)Nc1ncc2c(NC3CCN(C)CC3)ncc([C@H]3CC[C@H](O)CC3)c2n1 [Compound 220]
0.1 to 1,1 to 10,CC[C@H](C)Nc1ncc2c(OC3CCN(C)CC3)ncc([C@H]3CC[C@H](O)CC3)c2n1 [Compound 221]
0.1 to 1,1 to 10,CC[C@H](C)Nc1ncc2c(N3CC[C@@H](N(C)C)C3)ncc([C@H]3CC[C@H](O)CC3)c2n1 [Compound 222]
0.1 to 1,0.1 to 1,CC[C@H](C)Nc1ncc2c(OC3C[C@H]4CC[C@@H](C3)O4)ncc([C@H]3CC[C@H](O)CC3)c2n1 (stereo partly drawn) [Compound 223]
≤ 0.1,≤ 0.1,O[C@H]1CC[C@H](c2cnc(OC3CCNCC3)c3cnc(NCCC(F)(F)F)nc32)CC1 [Compound 224]
0.1 to 1,1 to 10,CC[C@H](C)Nc1ncc2c(=O)n(C3CCOCC3)cc([C@H]3CC[C@H](O)CC3)c2n1 [Compound 225]
0.1 to 1,0.1 to 1,CC[C@H](C)Nc1ncc2c(OC3CCOCC3)ncc([C@H]3CC[C@H](O)CC3)c2n1 [Compound 226]
≤ 0.1,0.1 to 1,CC[C@H](C)Nc1ncc2c(OC3CC(C)(C)N(C)C(C)(C)C3)ncc([C@H]3CC[C@H](O)CC3)c2n1 [Compound 227]
0.1 to 1,1 to 10,CCC(CC)Nc1ncc2c(OC3CCNCC3)ncc([C@H]3CC[C@H](O)CC3)c2n1 [Compound 228]
0.1 to 1,0.1 to 1,CC[C@H](C)Nc1ncc2c(O[C@H]3CC[C@H](O)CC3)ncc([C@H]3CC[C@H](O)CC3)c2n1 [Compound 229]
0.1 to 1,1 to 10,CC[C@H](C)Nc1ncc2c(Cl)ncc([C@H]3CC[C@H](O)CC3)c2n1 [Compound 230]
0.1 to 1,1 to 10,CC[C@H](C)NC1=NC2C([C@H]3CC[C@H](O)CC3)=CN(C(C)C)C(=O)C2C=N1 (stereo partly drawn) [Compound 231]

# Further lines, the compound ahead of its results:
SMILES,IC50 (AXL) [µM],IC50 (FLT3) [µM]
CCCCNc1cc2c(cn1)c(OC1CCNCC1)ncc2[C@H]1CC[C@H](O)CC1 [Compound 107],≤ 0.1,≤ 0.1
CCCCC[C@H](C)Nc1ncc2c(=O)n(C3CCOCC3)cc([C@H]3CC[C@H](O)CC3)c2n1 [Compound 108],0.1 to 1,1 to 10
"CCCCNc1cc2c(cn1)c(=O)n(C1CCNCC1)cc2[C@H]1CC[C@H](O)CC1 [Compound 109, 6-(butylamino)-4-((1r,4r)-4-hydroxycyclohexyl)-2-(piperidin-4-yl)-2,7-naphthyridin-1(2H)-one hydrochloride]",0.1 to 1,0.1 to 1
CC[C@@H](C)Nc1ncc2c(OC3CCN(C)CC3)ncc([C@H]3CC[C@H](O)CC3)c2n1 [Compound 195],0.1 to 1,1 to 10
CCC[C@@H](C)Nc1ncc2c(OC3CCNCC3)ncc([C@H]3CC[C@H](O)CC3)c2n1 [Compound 196],0.1 to 1,1 to 10
Cc1cccc(Nc2ncc3c(OC4CCNCC4)ncc([C@H]4CC[C@H](O)CC4)c3n2)c1 [Compound 197],≤ 0.1,0.1 to 1
Cc1cc(Cl)ccc1Nc1ncc2c(OC3CCNCC3)ncc([C@H]3CC[C@H](O)CC3)c2n1 [Compound 198],1 to 10,0.1 to 1
CCCC(C)Nc1ncc2c(=O)n([C@H]3CCN(C)C[C@@H]3F)cc([C@H]3CC[C@H](O)CC3)c2n1 (stereo partly drawn) [Compound 199],1 to 10,1 to 10
CCCC(C)Nc1ncc2c(=O)n([C@@H]3CCCN(C)C3)cc([C@H]3CC[C@H](O)CC3)c2n1 (stereo partly drawn) [Compound 200],1 to 10,1 to 10
CCCC(C)Nc1ncc2c(=O)n(C3CCN(C4COC4)CC3)cc([C@H]3CC[C@H](O)CC3)c2n1 (stereo partly drawn) [Compound 201],0.1 to 1,1 to 10
CC(Nc1ncc2c(OC3CCNCC3)ncc([C@H]3CC[C@H](O)CC3)c2n1)c1ccncc1 (stereo partly drawn) [Compound 202],1 to 10,1 to 10
CCCC(C)Nc1ncc2c(OC3CCNCC3)ncc([C@H]3CC[C@H](O)CC3)c2n1 (stereo partly drawn) [Compound 203],≤ 0.1,≤ 0.1
CCC[C@@H](C)Nc1ncc2c(OC3CCNCC3)ncc([C@H]3CC[C@@H](O)CC3)c2n1 [Compound 204],0.1 to 1,0.1 to 1
O[C@H]1CC[C@H](c2cnc(OC3CCNCC3)c3cnc(Nc4cccc(Cl)c4)nc32)CC1 [Compound 205],≤ 0.1,≤ 0.1
O[C@H]1CC[C@H](c2cnc(OC3CCNCC3)c3cnc(Nc4ccc(Cl)cc4)nc32)CC1 [Compound 206],≤ 0.1,≤ 0.1
CCc1cccc(Nc2ncc3c(OC4CCNCC4)ncc([C@H]4CC[C@H](O)CC4)c3n2)c1 [Compound 207],≤ 0.1,0.1 to 1
CCC[C@@H](C)Nc1ncc2c(OC3CCN(C)CC3)ncc([C@H]3CC[C@H](O)CC3)c2n1 [Compound 208],0.1 to 1,0.1 to 1
Cc1ccc(Cl)cc1Nc1ncc2c(OC3CCNCC3)ncc([C@H]3CC[C@H](O)CC3)c2n1 [Compound 209],1 to 10,0.1 to 1
O[C@H]1CC[C@H](c2cnc(OC3CCNCC3)c3cnc(Nc4ccccc4)nc32)CC1 [Compound 210],≤ 0.1,≤ 0.1
O[C@H]1CC[C@H](c2cnc(OC3CCNCC3)c3cnc(NC4CCOCC4)nc32)CC1 [Compound 211],0.1 to 1,0.1 to 1
CC(C)CNc1ncc2c(OC3CCNCC3)ncc([C@H]3CC[C@H](O)CC3)c2n1 [Compound 212],0.1 to 1,0.1 to 1
O[C@H]1CC[C@H](c2cnc(OC3CCNCC3)c3cnc(N[C@@H]4CCOC4)nc32)CC1 [Compound 213],0.1 to 1,1 to 10
CCCC(C)Nc1ncc2c(O[C@@H]3CCCN(C)C3)ncc([C@H]3CC[C@H](O)CC3)c2n1 (stereo partly drawn) [Compound 214],1 to 10,1 to 10
CCOc1ncc(C2CCN(C)CC2)c2nc(N[C@@H](C)CC)ncc12 [Compound 215],1 to 10,1 to 10
